Test results: patent US12091425B2 (AMGEN INC., priority 2016, dated 2024)

Assays:
[1] = molecular target: T1, Mcl-1/Bim interaction, recombinant human Mcl-1 (171-327) (Homo sapiens, UniProt Q07820); assay: Cell free Mcl-1: Bim Affinity Assay (Mcl-1 HTRF); type: binding
T1 construct: made in house
Summary of the method: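 TR-FRET competition assay with biotinylated human Bim peptide (residues 51-76); reaction plates incubated overnight before reading. IC50 values came from duplicate data fitted to a four-parameter sigmoidal competition curve.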

[2] = tested on: OPM-2 human multiple myeloma cell line; assay: Cell Viability Assay (OPM-2 10 FBS); type: cell-based; settings: OPM-2 cells, CellTiter-Glo
Summary of the method: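 ATP-based luminescence (CellTiter-Glo) measured after a 16 h compound treatment of OPM-2 cells seeded at 3000 cells/well in 10% FBS medium. IC50 values derived by 4-parameter logistic fitting of serial dilutions.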

[3] = cell free Mcl-1:Bim TR-FRET, recombinant human Mcl-1 (171-327)
[4] = Homo sapiens, OPM-2, 16 h, 16 h
[5] = TR-FRET, 0.1 nM Mcl-1 (171-327), 0.05 nM biotin-Bim (51-76)
[6] = Homo sapiens, OPM-2, 16 h, 16 h incubation

T1 sequence (Q07820 171-327): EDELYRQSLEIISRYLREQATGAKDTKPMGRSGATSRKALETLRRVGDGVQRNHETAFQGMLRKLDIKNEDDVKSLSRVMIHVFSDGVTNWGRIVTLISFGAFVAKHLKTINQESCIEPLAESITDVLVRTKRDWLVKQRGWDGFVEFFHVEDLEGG

Row | IC50 [2, 4] | IC50 [1, 5] | Structure (SMILES) | also measured
1 | – | – | O=C1NS(=O)(=O)[C@H](Cc2ccccc2)C/C=C/[C@H](O)[C@@H]2CC[C@H]2CN2C[C@@]3(CCCc4cc(Cl)ccc43)COc3ccc1cc32 (single isomer, unassigned) [Example 646] | IC50 [1, 3]: 45.3 nM; IC50 ([2]; 16 h): 23700 nM
2 | 131 nM | – | COC(=O)CC1C(C)CC=CC(O)C2CCC2CN2CC3(CCCc4cc(Cl)ccc43)COc3ccc(cc32)C(=O)NS1(=O)=O (stereo not drawn) [Example 647] | IC50 [1, 3]: 0.188 nM
3 | – | – | C[C@@H]1[C@@H](C)CCCC[C@H](O)[C@@H]2CC[C@H]2CN2C[C@@]3(CCCc4cc(Cl)ccc43)COc3ccc(cc32)C(=O)NS1(=O)=O (single isomer, unassigned) [Example 556] | IC50 [1, 3]: 1.65 nM; IC50 ([2]; 16 h): 781 nM
4 | 1220 nM | 0.494 nM | O=C1NS(=O)(=O)NCC/C=C/[C@H](O)[C@@H]2CC[C@H]2CN2C[C@@]3(CCCc4cc(Cl)ccc43)COc3ccc1cc32 [Example 19, (1S,3′R,6′R,7′S,8′E)-6-chloro-7′-hydroxy-3,4-dihydro-2H,15′H-spiro[naphthalene-1,22′-[20]oxa[13]thia[1,12,14]triazatetracyclo[14.7.2.0^3,6.0^19,24]pentacosa[8,16,18,24]tetraen]-15′-one 13,13′ dioxide] | –
5 | – | 0.329 nM | CC[C@@H]1CC/C=C/[C@H](OCc2ncccn2)[C@@H]2CC[C@H]2CN2C[C@@]3(CCCc4cc(Cl)ccc43)COc3ccc(cc32)C(=O)NS1(=O)=O [Example 977, (1S,3′R,6′R,7′S,8′E,12′R)-6-chloro-12′-ethyl-7′-(2-pyrimidinylmethoxy)-3,4-dihydro-2H,15′H-spiro[naphthalene-1,22′-[20]oxa[13]thia[1,14]diazatetracyclo[14.7.2.0^3,6.0^19,24]pentacosa [8,16,18,24]tetraen]-15′-one 13′,13′-dioxide] | IC50 [2, 6]: 266 nM
6 | 402 nM | 0.494 nM | COCCO[C@H]1/C=C/C[C@@H]2CC[C@H]2S(=O)(=O)NC(=O)c2ccc3c(c2)N(C[C@@H]2CC[C@H]21)C[C@@]1(CCCc2cc(Cl)ccc21)CO3 [Example 93, (1S,3′R,6′R,7′S,8′E,11′S,14′R)-6-chloro-7′-(2-methoxyethoxy)-3,4-dihydro-2H,17′H-spiro[naphthalene-1,24′-[22]oxa[15]thia[1,16]diazapentacyclo[16.7.2.0^3,6.0^11,14.0^21,26]heptacosa[8,18,20,26]tetraen]-17′-one 15′,15′-dioxide] | –
7 | 280 nM | 0.275 nM | COCCN(C)C(=O)CO[C@H]1/C=C/C[C@H](C)[C@@H](C)S(=O)(=O)NC(=O)c2ccc3c(c2)N(C[C@@H]2CC[C@H]21)C[C@@]1(CCCc2cc(Cl)ccc21)CO3 [Example 299, 2-(((1S,3′R,6′R,7′S,8′E,11′S,12′R)-6-chloro-11′,12′-dimethyl-13′,13′-dioxido-15′-oxo-3,4-dihydro-2H-spiro[naphthalene-1,22′-[20]oxa[13]thia[1,14]diazatetracyclo[14.7.2.0^3,6.0^19,24]pentacosa [8,16,18,24]tetraen]-7′-yl)oxy)-N-(2-methoxyethyl)-N-methylacetamide] | –
8 | 2280 nM | 12.3 nM | Cc1noc(C)c1CO[C@@H]1/C=C/CCCS(=O)(=O)NC(=O)c2ccc3c(c2)N(C[C@@H]2CC[C@H]21)C[C@@]1(CCCc2cc(Cl)ccc21)CO3 [Example 214, (1S,3′R,6′R,7′R,8′E)-6-chloro-7′-((3,5-dimethyl-4-isoxazolyl)methoxy)-3,4-dihydro-2H,15′H-spiro[naphthalene-1,22′-[20]oxa[13]thia[1,14]diazatetracyclo[14.7.2.0^3,6.0^19,24]pentacosa [8,16,18,24]tetraen]-15′-one 13′,13′-dioxide] | –
9 | – | 0.11 nM | C[C@@H]1[C@@H](C)S(=O)(=O)NC(=O)c2ccc3c(c2)N(C[C@@H]2CC[C@H]2[C@@H](OCC(=O)N(C)C)/C=C/[C@@H]1C)C[C@@]1(CCCc2cc(Cl)ccc21)CO3 [Example 1052, 2-(((1S,3′R,6′R,7′S,8′E,10′S,11′S,12′R)-6-chloro-10′,11′,12′-trimethyl-13′,13′-dioxido-15′-oxo-3,4-dihydro-2H-spiro[naphthalene-1,22′-[20]oxa[13]thia[1,14]diazatetracyclo[14.7.2.0^3,6.0^19,24]pentacosa [8,16,18,24]tetraen]-7′-yl)oxy)-N,N-dimethylacetamide] | IC50 [2, 6]: 95.7 nM
10 | 971 nM | 0.462 nM | O=C1NS(=O)(=O)N(CC2COC2)CC/C=C/[C@H](O)[C@@H]2CC[C@H]2CN2C[C@@]3(CCCc4cc(Cl)ccc43)COc3ccc1cc32 [Example 40, (1S,3′R,6′R,7′S,8′E)-6-chloro-7′-hydroxy-12′-(3-oxetanylmethyl)-3,4-dihydro-2H,15′H-spiro[naphthalene-1,22′-[20]oxa[13]thia[1,12,14]triazatetracyclo[14.7.2.0^3,6.0^19,24]pentacosa[8,16,18,24]tetraen]-15′-one 13′,13′-dioxide] | –
11 | 5370 nM | 5.25 nM | CCO[C@@H]1/C=C/CCCS(=O)(=O)NC(=O)c2ccc3c(c2)N(C[C@@H]2CC[C@H]21)C[C@@]1(CCCc2cc(Cl)ccc21)CO3 [Example 209, (1S,3′R,6′R,7′R,8′E)-6-chloro-7′-ethoxy-3,4-dihydro-2H,15′H-spiro[naphthalene-1,22′-[20]oxa[13]thia[1,14]diazatetracyclo[14.7.2.0^3,6.0^19,24]pentacosa [8,16,18,24]tetraen]-15′-one 13′,13′-dioxide] | –
12 | 1830 nM | 5.59 nM | C[C@@H]1C/C=C/[C@H](O)[C@@H]2CC[C@H]2CN2C[C@@]3(CCCc4cc(Cl)ccc43)COc3ccc(cc32)C(=O)NS(=O)(=O)N1C[C@@H]1CCCO1 (single isomer, unassigned) [Example 51] | –
13 | 1660 nM | 0.728 nM | COCCCN1[C@@H](C)C/C=C\[C@H](O)[C@@H]2CC[C@H]2CN2C[C@@]3(CCCc4cc(Cl)ccc43)COc3ccc(cc32)C(=O)NS1(=O)=O (single isomer, unassigned) [Example 73] | –
14 | – | – | CO[C@H]1/C=C/[C@H](O)[C@@H]2CC[C@H]2CN2C[C@@]3(CCCc4cc(Cl)ccc43)COc3ccc(cc32)C(=O)NS(=O)(=O)[C@H](C)C1 (single isomer, unassigned) [Example 487] | IC50 [1, 3]: 1.05 nM; IC50 ([2]; 16 h): 5800 nM
15 | 1700 nM | 0.8 nM | C[C@H]1C/C=C/[C@H](O)[C@@H]2CC[C@H]2CN2C[C@@]3(CCCc4cc(Cl)ccc43)COc3ccc(cc32)C(=O)NS(=O)(=O)N1CC1CC1 [Example 28, (1S,3′R,6′R,7′S,8′E,11′S)-6-chloro-12′-(cyclopropylmethyl)-7′-hydroxy-11′-methyl-3,4-dihydro-2H,15′H-spiro[naphthalene-1,22′-[20]oxa[13]thia[1,12,14]triazatetracyclo[14.7.2.0^3,6.0^19,24]pentacosa[8,16,18,24]tetraen]-15′-one 13,13′-dioxide] | –
16 | – | 1.03 nM | CC1CC(C)CS(=O)(=O)NC(=O)c2ccc3c(c2)N(CC2CCC2C(O)C1)CC1(CCCc2cc(Cl)ccc21)CO3 (single isomer, unassigned) [Example 270] | IC50 ([2]; 16 h): 116 nM
17 | – | – | CO[C@H](C)C[C@H]1CC/C=C/[C@H](O)[C@@H]2CC[C@H]2CN2C[C@@]3(CCCc4cc(Cl)ccc43)COc3ccc(cc32)C(=O)NS1(=O)=O (single isomer, unassigned) [Example 514] | IC50 [1, 3]: 0.391 nM; IC50 ([2]; 16 h): 165 nM

Row | Structure (SMILES) | IC50 [2, 4] | IC50 [1, 5] | also measured
18 | CO[C@H]1/C=C/C[C@@H]2COC[C@H]2S(=O)(=O)NC(=O)c2ccc3c(c2)N(C[C@@H]2CC[C@H]21)C[C@@]1(CCCc2cc(Cl)ccc21)CO3 (single isomer, unassigned) [Example 1032] | – | 0.422 nM | IC50 ([2]; 16 h incubation): 575 nM
